US12667567B2, “Method of preventing blast-induced loss of cochlear and vestibular hair cells and auditory spiral ganglion neurons” (Therapeutic Vision, Inc., priority 2024, dated 2026)
Several values for one entry are separate records, joined by “and”; a condition that tells them apart may be missing. Equal entries are not always repeated. Entries after “also recorded” stand apart in the source; their conditions may differ.

Tests used:
outer hair cells (OHC) = assay: Blast-induced outer hair cell loss, cochleogram; format: in vivo, rat
Experimental: (§1) Blast wave exposure. All rats were exposed to 6 blasts presented once every 5 minutes using equipment and procedures similar to those previously described. (See Manohar, S., et al., Blast-induced hearing loss suppresses hippocampal neurogenesis and disrupts long term spatial memory. Hear Res, 2020. 395: p. 108022; Stachowiak, M. K., et al., Neurogenesis and Oligodendrogenesis in a Mouse Model of Blast-Induced Traumatic Brain Injury. Neurology and Neurobiology, 2020: p. 1-14; and Newman, A. J., et al., Low-cost blast wave generator for studies of hearing loss and brain injury: blast wave effects in closed spaces. J Neurosci Methods, 2015. 242: p. 82-92.) Each rat was anesthetized with an intraperitoneal injection of ketamine (50 mg/kg) and xylazine (6 mg/kg) and stable anesthesia was maintained with supplementary half-doses of anesthetics as needed to maintain a stable anesthetic state. Each anesthetized rat was placed in a wire-mesh cage 5 cm with the snout of the rat facing the front of the blast tube opening. The average blast peak pressure level was 186 dB peak SPL (±0.8 dB, SEM, ~39.9 kPa). The intensity was selected based on our prior study in which we found no evidence of tympanic membrane or ossicular damage in rats exposed at 188 dB pSPL (Newman, A. J. et al.), consistent with an earlier report. (Roberto, M., R. P. Hamernik, and G. A. Turrentine, Damage of the auditory system associated with acute blast trauma. Ann Otol Rhinol Laryngol Suppl, 1989. 140: p. 23-34)
(§2) Experimental groups. The rats were divided into four groups (n=6/group): (1) Blast alone (B), (2) Blast plus earplugs (BEP), (3) Blast plus HK-2 (BHK-2) and (4) Blast plus earplugs plus HK-2 (BEPHK-2). All rats had free access to water and standard lab chow except for the BHK-2 and BEPHK-2 groups that also received HK-2 as noted below.
(§3) HK-2 synthesis and administration. HK-2 was synthesized and evaluated for purity (>99%) as described previously. (Kawada, H. and P. F. Kador, Orally Bioavailable Metal Chelators and Radical Scavengers: Multifunctional Antioxidants for the Coadjutant Treatment of Neurodegenerative Diseases. J Med Chem, 2015. 58(22): p. 8796-805; U.S. Pat. No. 8,877,766 B2) Rats in the BHK-2 group and BEPHK-2 group were fed the same standard laboratory rat chow as the other two groups, however, the chow had been treated with HK-2 as described previously. (Chen, G. D., et al.; Manohar, S., et al., Combined antioxidants and anti-inflammatory therapies fail to attenuate the early and late phases of cyclodextrin-induced cochlear damage and hearing loss. Hear Res, 2022. 414: p. 108409.) HK-2 treated food was administered to rats starting 7-days prior to the blast wave exposure and continuing for 30-days following exposure. Based on the rat's daily food consumption, measured every 2 days together with body weight, the average oral consumption of HK-2 was ~50 mg/kg/day. (Id.)
(§4) Tissue preparation. Approximately 60-days after the blast wave exposure, the rats from all four groups were deeply anesthetized with ketamine (50 mg/kg, i.p.) and xylazine (6 mg/kg, i.p.) and decapitated. The temporal bones were quickly removed. Under a dissection microscope, openings were made in the cochlear apex, round window, and the oval window. […]

inner hair cells (IHC) = assay: Blast-induced inner hair cell loss, cochleogram; format: in vivo, rat
Experimental: as §1, §2, §3, §4

[1] = test system: spiral ganglion neurons (SGN); assay: Blast-induced loss of spiral ganglion neurons in Rosenthal's canal; format: in vivo, rat; details: for mean number of SGN per section: middle of basal turn, ~25 kHz
Experimental: as §1, §2
(§5) HK-2 synthesis and administration. HK-2 was synthesized and evaluated for purity (>99%) as described previously. (Kawada, H. and P. F. Kador, Orally Bioavailable Metal Chelators and Radical Scavengers: Multifunctional Antioxidants for the Coadjutant Treatment of Neurodegenerative Diseases. J Med Chem, 2015. 58(22): p. 8796-805; U.S. Pat. No. 8,877,766 B2) Rats in the BHK-2 group and BEPHK-2 group were fed the same standard laboratory rat chow as the other two groups, however, the chow had been treated with HK-2 as described previously. […] Based on the rat's daily food consumption, measured every 2 days together with body weight, the average oral consumption of HK-2 was ~50 mg/kg/day. […]

[2] = test system: auditory nerve fibers (ANF); assay: Blast-induced loss of auditory nerve fibers in habenula perforata; format: in vivo, rat; details: for mean number of ANF/habenula perforata: middle of basal turn, ~25 kHz
Experimental: as §1, §2, §5

[3] = test system: vestibular hair cells in the utricle; assay: Vestibular hair cell density in macula of the utricle after blast; format: in vivo, rat
Experimental: as §1, §2, §5

[4] = test system: vestibular hair cells in the crista of the ampulla; assay: Vestibular hair cell density in crista ampullae of semicircular canals after blast; format: in vivo, rat
Experimental: as §1, with “The intensity was selected based on our prior study in which we found no evidence of tympanic membrane or ossicular damage in rats exposed at 188 dB pSPL (Newman, A. J. et al.), consistent with an earlier report. (Roberto, M., R. P. Hamernik, and G. A. Turrentine, Damage of the auditory system associated with acute blast trauma. Ann Otol Rhinol Laryngol Suppl, 1989. 140: p. 23-34)” left out
HK-2 synthesis and administration. HK-2 was synthesized and evaluated for purity (>99%) as described previously. […] Based on the rat's daily food consumption, measured every 2 days together with body weight, the average oral consumption of HK-2 was ~50 mg/kg/day. […]

[5] = test system: vestibular hair cells in the saccule; assay: Vestibular hair cell density in macula of the saccule after blast; format: in vivo, rat
Experimental: as §1, §2, §3, §4

[6] = test system: noise-induced hearing loss and outer hair cell loss; details: 95 dB SPL octave band noise, 8 h/d for 21 days; HK-2 before, during and after the exposure; cited from earlier work
[7] = BHK-2 group, 6 blasts 186 dB peak SPL, HK-2 oral 50 mg/kg/d from 7 d before to 30 d after blast, 60 d post-exposure, 50 mg/kg/day
[8] = BEPHK-2 group (earplugs plus HK-2)
[9] = HK-2 oral 50 mg/kg/d, 60 d post-exposure, 50 mg/kg/day
[10] = BHK-2 group, no blast-induced loss in this region

O=C1CCC(=O)N1c1ncc(O)cn1 [HK-2, 1-(5-hydroxypyrimidin-2-yl) pyrrolidine-2,5-dione]
OHC loss less than in BEP group (outer hair cells (OHC); BEPHK-2 group (earplugs plus HK-2), extreme base): about 10% | reduction of total OHC loss compared to B group (outer hair cells (OHC); [7]): 67% and ~ 67% | mean OHC loss (outer hair cells (OHC); BHK-2 group, 10% location (distance from apex)): 10% | mean OHC loss (outer hair cells (OHC); BHK-2 group, 70% location (distance from apex)): ~ 39% | mean OHC loss (outer hair cells (OHC); BHK-2 group, high-frequency base of the cochlea): ~ 76% | IHC loss (inner hair cells (IHC); BEPHK-2 group (earplugs plus HK-2; range stated jointly with BEP group), base of the cochlea): 14-19% | reduction of total IHC loss compared to B group (inner hair cells (IHC); [7]): 57% and ~ 57.3% and ~ 57% | mean IHC loss (inner hair cells (IHC); BHK-2 group, middle of the cochlea): ~ 20 | mean IHC loss (inner hair cells (IHC); BHK-2 group, near the apex): 0% | mean IHC loss (inner hair cells (IHC); BHK-2 group, near the base of the cochlea): ~ 67% | mean number of SGN per section [1, 8]: 41.8 SGN per section | mean number of SGN per section ([1]; BHK-2 group, B group ~9): 42.3 SGN per section | protection against blast-induced SGN loss (in words) [1, 9]: completely prevented; also recorded: significant protection | increase of SGN versus blast alone ([1]; HK-2 treatment, 25 kHz region): ~ 3.7 fold | mean number of ANF/habenula perforata [2, 8]: 82.8 ANF/habenula perforata | mean number of ANF/habenula perforata ([2]; BHK-2 group, B group ~9.2): 84.2 ANF/habenula perforata | protection against blast-induced ANF loss (in words) [2, 9]: completely prevented; also recorded: complete protection | increase of ANF versus blast alone ([2]; HK-2 treatment, 25 kHz region): ~ 8 fold | mean hair cell density, marginal region of the macula of the utricle [3, 8]: 122.8 /0.0108 mm^2 | mean hair cell density, striola region of the macula of the utricle [3, 8]: 111.3 /0.0108 mm^2 | mean hair cell density, marginal region of the macula of the utricle [3, 10]: 122.7 /0.0108 mm^2 | mean hair cell density, striola region of the macula of the utricle [3, 10]: 111.0 /0.0108 mm^2 | mean hair cell density, crista of the ampulla of the three semicircular canals [4, 8]: 122.8 /0.0108 mm^2 | mean hair cell density, crista of the ampulla of the three semicircular canals [4, 10]: 121.8 /0.0108 mm^2 | mean hair cell density, marginal region of the saccule [5, 8]: 123.0 /0.0108 mm^2 | mean vestibular hair cell density, striola of the saccule [5, 8]: 112.0 hair cell/0.0108 mm^2 | mean vestibular hair cell density, striola of the saccule ([5]; BHK-2 group, B group 71.83): 102.7 hair cell/0.0108 mm^2 | mean hair cell density, marginal region of the saccule [5, 10]: 122.2 /0.0108 mm^2 | protection against blast-induced saccule (striola) hair cell loss (in words) [5, 9]: completely prevented; also recorded: restored hair cell densities to normal levels; also recorded: significant protection | hearing loss and hair cell loss after noise exposure (in words) [6]: significantly reduced in a dose-dependent manner
